# Source: article PMC12378361, “Design and synthesis of photoswitchable desloratadine ligands for histamine H1 receptor photopharmacology” (RSC Medicinal Chemistry, 2025)
# Values joined by “and” are separate entries in the source; they are usually repeats but may differ in a detail not shown here. Equal entries are not always repeated. Where two headings read alike, the source gives them in different places.
# Legend:
# [1] = Thermal relaxation of PSScis states; settings: for Approximate t1/2 (thermal relaxation of PSScis): HBSS buffer containing 50% DMSO; for thermal half-lives (approximated dark stability), order of magnitude in words: in buffer
# Experimental: (§1) The photochemical properties of the photoswitchable ligands (Table 1, Fig. S2–S10) were first characterized by UV-vis absorption spectroscopy.
# (§2) Experimental procedures – Photochemistry
# (§3) equipped with a thermostated cell holder set at 20 °C. Fits of UV−vis spectroscopy data were generated
# (§4) IlluminaIon for all photochemical experiments was executed using a Suter
# (§5) instruments Lambda LS with a 300 W full-spectrum lamp connected to a Suter instruments Lambda
# For photochemical analyses,
# (§6) IlluminaIons for pharmacological experiments were performed in cylindrical clear glass vials with a
# (§7) The typi cal di stance between l i ght source and vi al or cuvete was 2 cm.
# human histamine H1R = molecular target: T1, human histamine H1R (Homo sapiens, UniProt P35367); assay: Competition radioligand binding with [3H]mepyramine on homogenates of HEK293T cells expressing HA-H1R; settings: for pKi shift: pKi PSScis – pKi trans (log unit)
# T1 construct: expressed in transfected cells; host or cells: HEK293T cells, transient expression; cell homogenates
# T1 sequence (P35367 whole entry): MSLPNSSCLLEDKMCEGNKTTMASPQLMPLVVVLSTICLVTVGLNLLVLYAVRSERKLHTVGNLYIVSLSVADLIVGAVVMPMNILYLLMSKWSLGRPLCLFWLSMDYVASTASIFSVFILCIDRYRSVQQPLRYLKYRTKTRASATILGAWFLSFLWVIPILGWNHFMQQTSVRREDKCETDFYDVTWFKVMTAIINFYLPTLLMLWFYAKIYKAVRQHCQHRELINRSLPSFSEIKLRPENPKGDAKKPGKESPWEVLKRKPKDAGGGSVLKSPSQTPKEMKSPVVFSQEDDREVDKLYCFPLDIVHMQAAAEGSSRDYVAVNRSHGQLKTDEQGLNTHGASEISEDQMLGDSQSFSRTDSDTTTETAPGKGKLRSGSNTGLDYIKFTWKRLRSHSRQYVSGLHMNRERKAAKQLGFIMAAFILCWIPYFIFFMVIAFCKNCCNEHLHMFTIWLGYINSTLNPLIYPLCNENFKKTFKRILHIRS
# Experimental: For 10c and 12c, continuous illumination at 365 nm was used to counteract the short half-lives of their PSScis states, while for the other compounds PSScis states were obtained by pre-illumination with 360 nm.
# Experimental methods – Pharmacology
# The homogenates were stored at −20 °C. […] A]erwards, the cell homogenates were incubated with the respecIve (photo)ligands in […]
# black 96 well plates (Greiner). During the incubaIon Ime, 10c and 12c were conInuousl y i l l umi nated with 365 nm (10 V, 2 mW, constant mode) light (96 LED array plates, LAD-1, LEDA-x, Bio Research Center Co., Ltd. Izumi, Japan) to account for thei r short-lived cis isomers. A]er a 4-hour incubaIon Ime, the binding reacIon was stopped using a harvester (PerkinElmer). Upon mulIple wa s h ste ps through a polyethyleneimine-coated GF/C ﬁlter plate (PerkinElmer) receptor-bound radioligand was captured by the GF/C ﬁlter plate. A]er drying the GF/C plate, the ﬁlter-bound radioligand was quanIﬁed by scinIllaIon counIng using MicroScint-O and the Wallac MicroBeta counter (PerkinElmer). […]
# [2] = Photostationary state by LC-MS at the isosbestic point; settings: 10 mM in DMSO; for PSStrans (area% trans): after illumination of PSScis state with 434 ± 9 nm; for PSScis (area% cis): after illumination of trans isomer with 360 ± 20 nm
# Experimental: as §1, §2, §3, §4, §5
# For photochemical analyses,
# as §6, §7
# [3] = UV-vis absorption spectroscopy; settings: 25 μM in HBSS buffer containing 50% DMSO; for λmax cis: n–π* band; for λmax trans: π–π* band
# Experimental: as §1, §2, §3, §4, §5
# For photochemical analyses,
# as §6, §7
# hH1R = settings: cited from earlier work; for pKi hH1R PSScis: PSScis state; for pKi hH1R trans: trans isomer
# gpH1R = system: gpH1R; design: method as in PMID 30628180; settings: cited from earlier work; for pA2 gpH1R PSScis: PSScis state; for pA2 gpH1R trans: trans isomer
# [4] = Arrhenius extrapolation to 20 °C
# [5] = PSScis state obtained by pre-illumination with 360 nm, mean ± SEM, n = 3, read-out: pKi PSScis (converted)
# [6] = trans isomer (8: template, not photoswitchable), [3H]mepyramine, mean ± SEM, n = 3, read-out: pKi trans (converted)
# [7] = trans isomer (8: template, not photoswitchable), [3H]mepyramine, mean ± SEM, n = 3
# [8] = continuous illumination at 365 nm during 4 h incubation at 25 °C, mean ± SEM, n = 3, read-out: pKi PSScis (converted)
"Approximate t1/2 (thermal relaxation of PSScis) [1, 4] [days]","thermal half-lives (approximated dark stability), order of magnitude in words [1]",Ki (human histamine H1R; [5]) [nM],pKi shift (human histamine H1R),Ki (human histamine H1R; [6]),PSStrans (area% trans) [2] [area%],PSScis (area% cis) [2] [area%],λmax cis [3] [nm],λmax trans [3] [nm],Structure (SMILES),also measured
31,months,3.98,−0.3,2 nM,79,87,430,335,Clc1ccc2c(c1)CCc1cc(/N=N/c3ccccc3)cnc1C2=C1CCNCC1 [10b],–
198,months,6.31,−0.1,5.01 nM,81,91,423,325,Clc1ccc2c(c1)CCc1cccnc1C2=C1CCN(Cc2cccc(/N=N/c3ccccc3)c2)CC1 [12b],–
211,months,> 1000,–,> 1000 nM,82,67,419,–,Clc1ccc2c(c1/N=N/c1ccccc1)CCc1cccnc1C2=C1CCNCC1 [11c],"pKi PSScis (human histamine H1R; PSScis state obtained by pre-illumination with 360 nm, mean ± SEM, n = 3): <6.0; pKi trans (human histamine H1R; [7]): <6.0"
78,months,251,−0.2,~158 nM and 158 nM,79,97,429,340,Clc1cc2c(cc1/N=N/c1ccccc1)C(=C1CCNCC1)c1ncccc1CC2 [11a],–
38,months,15.8,−0.5,5.01 nM,85,91,429,332,Clc1ccc2c(c1)CCc1ccc(/N=N/c3ccccc3)nc1C2=C1CCNCC1 [10a],"Ki (human histamine H1R; trans isomer, read-out: Ki trans): 2 nM; fold higher H1R affinity compared to 11b (human histamine H1R; trans isomers): approximately 25 fold; light-induced affinity shift (human histamine H1R; trans vs PSScis): 3.2 fold"
–,seconds,–,−0.1,3.98 nM,–,–,–,329,Clc1ccc2c(c1)CCc1cccnc1C2=C1CCN(Cc2ccccc2/N=N/c2ccccc2)CC1 [12c],Approximate t1/2 (thermal relaxation of PSScis) ([1]; 20 °C): 0.000521 days; Ki (human histamine H1R; [8]): 5.01 nM
5,days,501,−0.6,126 nM,80,91,435,338,c1ccc(/N=N/c2ccc3c(c2)CCc2cccnc2C3=C2CCNCC2)cc1 [11b],–
–,minutes,–,–,158 nM,–,–,419,319,Clc1ccc2c(c1)CCc1c(/N=N/c3ccccc3)ccnc1C2=C1CCNCC1 [10c],Approximate t1/2 (thermal relaxation of PSScis) ([1]; 20 °C): 0.0104 days; Ki (human histamine H1R; [8]): 158 nM; pKi trans (human histamine H1R; [7]): 6.8 ± 0.0
19,days,3.16,−0.1,2.51 nM,83,93,432,327,Clc1ccc2c(c1)CCc1cccnc1C2=C1CCN(Cc2ccc(/N=N/c3ccccc3)cc2)CC1 [12a],–

# Further lines, the compound ahead of its results:
Structure (SMILES),"Approximate t1/2 (thermal relaxation of PSScis) [1, 4] [days]","thermal half-lives (approximated dark stability), order of magnitude in words [1]",Ki (human histamine H1R; [5]) [nM],pKi shift (human histamine H1R),Ki (human histamine H1R; [6]),PSStrans (area% trans) [2] [area%],PSScis (area% cis) [2] [area%],λmax cis [3] [nm],λmax trans [3] [nm],also measured
CN1CCC(Oc2ccccc2/N=N/c2ccccc2)CC1 [compound 6],–,–,–,–,–,–,–,–,–,pKi hH1R PSScis (hH1R): 5.1; pKi hH1R trans (hH1R): 5.2
CN1CCC(Oc2cccc(/N=N/c3ccccc3)c2)CC1 [compound 5],–,–,–,–,–,–,–,–,–,pKi hH1R PSScis (hH1R): < 5.0; pKi hH1R trans (hH1R): < 5.0
CN1CCN(C2=Nc3ccc(Cl)cc3Oc3ccccc32)CC1 [compound 1],–,–,–,–,–,–,–,–,–,pKi hH1R (hH1R): 8.1 ± 0.1
"Cc1cncc(CN2CCC(=C3c4ccc(Cl)cc4CCc4cccnc43)CC2)c1 [compound 9, rupatadine]",–,–,–,–,–,–,–,–,–,pKi hH1R (hH1R): 8.4
CN1CCC(Oc2ccccc2Cc2ccccc2)CC1 [compound 4],–,–,–,–,–,–,–,–,–,pKi hH1R (hH1R): 8.7 ± 0.1
CN1CCN(/C(=N\c2ccc(/N=N/c3ccc(S(=O)(=O)O)cc3)cc2)c2ccc(Cl)cc2)CC1 [compound 2],–,–,–,–,–,–,–,–,–,pA2 gpH1R PSScis (gpH1R): 4.7 ± 0.1; pA2 gpH1R trans (gpH1R): 5.9 ± 0.1
"CCOC(=O)N1CCC(=C2c3ccc(Cl)cc3CCc3cccnc32)CC1 [compound 7, loratadine]",–,–,–,–,–,–,–,–,–,pKi hH1R (hH1R): 6.8 ± 0.1
CN1CCN(/C(=N\c2ccc(/N=N/c3ccc([N+](=O)[O-])cc3)cc2)c2ccc(Cl)cc2)CC1 [compound 3],–,–,–,–,–,–,–,–,–,pA2 gpH1R PSScis (gpH1R): 4.5 ± 0.1; pA2 gpH1R trans (gpH1R): 6.2 ± 0.1
